Legend:
[1] = Stability in human plasma assessed as parent compound remaining after 24 hrs; assay type: ADME, cell-free; details: read-out: Stability
[2] = Stability in mouse plasma assessed as parent compound remaining after 24 hrs; assay type: ADME, cell-free; details: read-out: Stability

| SMILES | remaining at 24 h [1] [%] | remaining at 24 h [2] [%] |
| --- | --- | --- |
| CC(=O)N[C@@H](Cc1csc2ccccc12)C(=O)N[C@@H](CCC(N)=O)C(=O)N[C@@H](CO)C(=O)N[C@@H](CCCCN)C(=O)N1CCC[C@@H]1C(=O)N[C@@H](CC(N)=O)C(=O)N[C@H](C(=O)N[C@@H](Cc1cnc[nH]1)C(=O)N[C@H](C(=O)N[C@@H](CC(=O)O)C(=O)NCC(=O)N[C@@H](Cc1ccc(O)cc1)C(=O)N[C@@H](Cc1ccccc1)C(=O)N[C@@H](CCC(=O)O)C(=O)N[C@@H](CCCNC(=N)N)C(=O)N[C@@H](CC(C)C)C(=O)NC(C)(C)C(=O)N[C@@H](C)C(=O)N[C@@H](CCCCN)C(=O)N[C@@H](CC(C)C)C(N)=O)C(C)C)C(C)C | 18.6 | 0 |
| CC(=O)N[C@@H](Cc1ccccc1)C(=O)N[C@@H](CCC(N)=O)C(=O)N[C@@H](CO)C(=O)N[C@@H](CCCCN)C(=O)N1CCC[C@@H]1C(=O)N[C@@H](CC(N)=O)C(=O)N[C@H](C(=O)N[C@@H](Cc1cnc[nH]1)C(=O)N[C@H](C(=O)N[C@@H](CC(=O)O)C(=O)N[C@H](C)C(=O)N[C@@H](Cc1ccc(O)cc1)C(=O)N[C@@H](Cc1ccccc1)C(=O)N[C@@H](CCC(=O)O)C(=O)N[C@@H](CCCNC(=N)N)C(=O)N[C@@H](CC(C)C)C(=O)NC(C)(C)C(=O)NC(C)(C)C(=O)N[C@@H](CCCCN)C(=O)N[C@@H](CC(C)C)C(N)=O)C(C)(C)C)C(C)C | 99.2 | 85.9 |
| CC(=O)N[C@@H](Cc1ccccc1)C(=O)N[C@@H](CCC(N)=O)C(=O)N[C@@H](CO)C(=O)N[C@@H](CCCCN)C(=O)N1CCC[C@@H]1C(=O)N[C@@H](CC(N)=O)C(=O)N[C@H](C(=O)N[C@@H](Cc1cnc[nH]1)C(=O)N[C@H](C(=O)N[C@@H](CC(=O)O)C(=O)NCC(=O)N[C@@H](Cc1ccc(O)cc1)C(=O)N[C@@H](Cc1csc2ccccc12)C(=O)N[C@@H](CCC(=O)O)C(=O)N[C@@H](CCCNC(=N)N)C(=O)N[C@@H](CC(C)C)C(=O)NC(C)(C)C(=O)N[C@@H](C)C(=O)N[C@@H](CCCCN)C(=O)N[C@@H](CC(C)C)C(N)=O)C(C)C)C(C)C | 46.6 | 6.1 |
| CC(C)C[C@@H]1NC(=O)[C@H](CCCCN)NC(=O)[C@H](C)NC(=O)C(C)(C)NC(=O)[C@H](CC(C)C)NC(=O)[C@H](CCCNC(=N)N)NC(=O)[C@H](CCC(=O)O)NC(=O)[C@H](Cc2ccccc2)NC(=O)[C@H](Cc2ccc(O)cc2)NC(=O)CNC(=O)[C@H](CC(=O)O)NC(=O)[C@H](C(C)C)NC(=O)[C@H](Cc2cnc[nH]2)NC(=O)[C@H](C(C)C)NC(=O)[C@H](CC(N)=O)NC(=O)[C@H]2CCCN2C(=O)[C@H](CCCCN)NC(=O)[C@H](CO)NC(=O)[C@H](CCC(N)=O)NC(=O)[C@H](Cc2ccccc2)NC(=O)CCOCCOCCOCCNC1=O | 62.8 | 38.1 |
| CC(=O)N[C@@H](Cc1ccccc1)C(=O)N[C@@H](CCC(N)=O)C(=O)N[C@@H](CO)C(=O)N[C@@H](CCCCN)C(=O)N1CCC[C@@H]1C(=O)N[C@@H](CC(N)=O)C(=O)N[C@H](C(=O)N[C@@H](Cc1cnc[nH]1)C(=O)N[C@H](C(=O)N[C@@H](CC(=O)O)C(=O)NCC(=O)N[C@@H](Cc1ccc(O)cc1)C(=O)N[C@@H](Cc1ccccc1)C(=O)N[C@@H](CCC(=O)O)C(=O)N[C@@H](CCCNC(=N)N)C(=O)N[C@@H](CC(C)C)C(=O)NC(C)(C)C(=O)N[C@@H](C)C(=O)N[C@@H](CCCCN)C(=O)N[C@@H](CC(C)C)C(N)=O)c1ccccc1)C(C)C | 34.7 | 4.8 |
| CCCCCCCCCCCCCC(=O)NCCCOCCOCCOCCCNC(=O)CCNCCCC[C@H](NC(=O)[C@H](CC(C)C)NC(=O)[C@H](CCCCN)NC(=O)[C@H](C)NC(=O)C(C)(C)NC(=O)[C@H](CC(C)C)NC(=O)[C@H](CCCNC(=N)N)NC(=O)[C@H](CCC(=O)O)NC(=O)[C@H](Cc1ccccc1)NC(=O)[C@H](Cc1ccc(O)cc1)NC(=O)[C@@H](C)NC(=O)[C@H](CC(=O)O)NC(=O)[C@@H](NC(=O)[C@H](Cc1cnc[nH]1)NC(=O)[C@@H](NC(=O)[C@H](CSCNC(C)=O)NC(=O)[C@H]1CCCN1C(=O)[C@H](CCCCN)NC(=O)[C@H](CO)NC(=O)[C@H](CCC(N)=O)NC(=O)[C@H](Cc1ccccc1)NC(=O)CCCCC)C(C)C)C(C)(C)C)C(N)=O | 96.5 | 67.5 |

— ChEMBL document CHEMBL4420062, “Tfpi inhibitors and methods of use” (2013)
